From US20190307749A1, “Mitochondria-Division Inhibitor 1 Protects Against Amyloid-B Induced Mitochondrial Fragmentation and Synaptic Damage in Alzheimer's Disease” (Texas Tech University System, priority 2018, published 2019)
Marks after values point to notes of the source that are not given here.

Experiments:
[1] = test system: mouse neuroblastoma (N2a) cells; assay: Quantitative real-time RT-PCR: mRNA expression of mitochondrial dynamics, biogenesis and synaptic genes; format: cell-based; settings: N2a cells
Protocol: (§1) Tissue culture: The N2a cells were grown for 3 days in a serum-free medium (1:1 mixture of DMEM and OptiMEM, plus penicillin and streptomycin [Invitrogen, Carlsbad, Calif., USA]) until the cells developed neuronal processes.
Quantitative real-time RT-PCR: Using the reagent TriZol (Invitrogen), total RNA was isolated from cell pellets from the 5 N2a cell groups (FIG. 1). Using primer express software (Applied Biosystems, Carlsbad, Calif., USA), the inventors designed the oligonucleotide primers for the housekeeping genes 3-actin, GAPDH, mitochondrial structural genes, fission genes (Drp1, Fis1), fusion genes (MFN1, MFN2, Opa1), biogenesis genes (PGC1c, Nrf1, Nrf2, TFAM), and synaptic genes (synaptophysin and PSD95) (see Table 1 for primer sequences and amplicon sizes). Using SYBR-Green chemistry-based quantitative real-time RT-PCR, mRNA expressions of the above-mentioned genes were measured, as described by Manczak and Reddy.
The mRNA transcript level was normalized against β-actin and the GAPDH at each dilution. The standard curve was the normalized mRNA transcript level, plotted against the log-value of the input cDNA concentration at each dilution. To compare β-actin, GAPDH, and relative quantification was performed according to the (CT) method (Applied Biosystems). […] The ΔCT-value was obtained by subtracting the average β-actin CT value from the average CT-value of the synaptic mitochondrial ETC genes and the mitochondrial structural genes. The ΔCT of untreated cells was used as the calibrator. The fold change was calculated according to the formula 2^-(Δ ΔCT), where ΔΔCT is the difference between ΔCT and the ΔCT calibrator value. To determine the statistical significance of mRNA expression, the CT value differences between the untreated cells and other experimental groups of cells were used in relation to β-actin normalization. Statistical significance was calculated, using one-way ANOVA.

[2] = test system: N2a cells; assay: Lipid peroxidation assay (4-hydroxy-2-nonenol, HNE-His ELISA); format: cell-based, mouse
Protocol: as §1
Lipid peroxidation assay: Lipid peroxidates are unstable indicators of oxidative stress in the brain. The final product of lipid peroxidation is 4-hydroxy-2-nonenol (HNE), which was measured in the N2a cell lysates prepared from cell pellets of control and treatment groups. The inventors used an HNE-His ELISA kit (Cell BioLabs, Inc., San Diego, Calif., USA), as described in Manczak and Reddy. Briefly, freshly prepared protein as added to a 96-well protein binding plate and incubated overnight at 4° C. The protein then washed 3 times with a buffer. After the last wash, the anti-HNE-His antibody was added to the protein in the wells, incubated for 2 hours at room temperature, and then washed again 3 times. The samples were then incubated with a secondary antibody conjugated with peroxidase for 2 hours at room temperature, followed by incubation with an enzyme substrate. Optical density was measured (at 450 nm) to quantify the level of HNE.

[3] = test system: N2a cells; assay: Cell viability (MTT assay); format: cell-based, mouse
Protocol: as §1
The N2a cells from all 5 groups (4 treatment groups and 1 control group) were harvested, and their cell pellets were collected and used for quantitative real-time RT-PCR, immunoblotting analysis of mitochondrial and synaptic proteins, and mitochondrial functional assays for hydrogen peroxide production, lipid peroxidation, cytochrome c oxidase activity, and MTT determination. Isolated mitochondria from N2a cells from all 5 groups were used to determine mitochondrial ATP as described in Reddy et al..

[4] = test system: N2a cells; assay: H2O2 production (Amplex Red H2O2 assay); format: cell-based, mouse
Protocol: as §1
Mitochondrial functional assays. H2O2 production: Using an Amplex® Red H2O2 assay kit (Molecular Probes, Eugene, Oreg., USA), H2O2 production was measured using cell pellets, as described in Manczak and Reddy. Briefly, H2O2 production was measured in the protein lysates prepared from cell pellets of control untreated N2a cells and 4 treatment groups (FIG. 1). A BCA protein assay kit (Pierce Biotechnology) was used to estimate protein concentration. The reaction mixture contained mitochondrial proteins (μg/μl), Amplex Red reagents (50 μM), horseradish peroxidase (0.1 U/ml), and a reaction buffer (1×). The mixture was incubated at room temperature for 30 minutes, followed by spectrophotometer readings of fluorescence (570 nm). Finally, H2O2 production was determined, using a standard curve equation expressed in nmol/μg mitochondrial protein.

[5] = test system: mouse neuroblastoma (N2a) cells; assay: Quantitative real-time RT-PCR: mRNA expression of mitochondrial dynamics, biogenesis and synaptic genes; format: cell-based; settings: vs Aβ42 treated cells
[6] = Aβ42 6 hrs then Mdivi1 24 hrs (Aβ42+Mdivi1), vs Aβ42 treated cells
[7] = Aβ42 6 hrs then Mdivi1 24 hrs (Aβ42+Mdivi1), vs untreated N2a cells
[8] = Mdivi1 24 hrs or Aβ42 20 μM 6 hrs alone, vs untreated N2a cells
[9] = Mdivi1 24 hrs then Aβ42 6 hrs (Mdivi1+Aβ42), vs Aβ42 treated cells
[10] = Mdivi1 24 hrs then Aβ42 6 hrs (Mdivi1+Aβ42), vs untreated N2a cells
[11] = Aβ42 6 hrs then Mdivi1 24 hrs (Aβ42+Mdivi1)

Q: How did the “Drp1 mRNA expression level, lower by fold” value [1, 6] turn out when `COc1cc(-n2c(S)nc3ccccc3c2=O)c(Cl)cc1Cl` [Mdivi1, 3-(2,4-Dichloro-5-methoxyphenyl)-2,3-dihydro-2-thioxo-4(1H)-quinazolinone] was run?
A: 1.5 fold

Q: What about the “Drp1 mRNA fold change” value [1, 6] of the same compound?
A: −1.5* fold

Q: What about the “Fis1 mRNA expression level, lower by fold” value [1, 6] of the same compound?
A: 1.7 fold

Q: What about the “Fis1 mRNA fold change” value [1, 6] of the same compound?
A: −1.7* fold

Q: What about the “Mfn1 mRNA fold change” value [1, 6] of the same compound?
A: 1.6 fold

Q: What about the “Mfn2 mRNA fold change” value [1, 6] of the same compound?
A: 1.6 fold

Q: And the “Nrf1 mRNA fold change” value [1, 6]?
A: 2.0 fold

Q: And the “OPA1 mRNA fold change” value [1, 6]?
A: 1.3 fold

Q: What about the “PGC1α mRNA fold change” value [1, 6] of the same compound?
A: 8.1 fold

Q: What about the “Synaptophysin mRNA fold change” value [1, 6] of the same compound?
A: 1.5 fold

Q: What about the “CypD mRNA level” value [1, 7] of the same compound?
A: unchanged

Q: What about the “PGC1α mRNA fold change” value [1, 7] of the same compound?
A: 1.4 fold

Q: What about the “PSD95 mRNA fold change” value [1, 7] of the same compound?
A: 4.8 fold

Q: And the “Synaptophysin mRNA fold change” value [1, 7]?
A: 1.2 fold

Q: And the “TFAM mRNA fold change” value [1, 7]?
A: 1.2 fold

Q: And the “Drp1 mRNA fold change” value [1, 8]?
A: −1.5* fold

Q: What about the “Drp1 mRNA level, fold decrease” value [1, 8] of the same compound?
A: 1.5 fold

Q: What about the “Fis1 mRNA fold change” value [1, 8] of the same compound?
A: −1.3 fold

Q: And the “Fis1 mRNA level, fold decrease” value [1, 8]?
A: 1.3 fold

Q: What about the “Mfn1 mRNA fold change” value [1, 8] of the same compound?
A: 1.3 fold

Q: What about the “Mfn2 mRNA fold change” value [1, 8] of the same compound?
A: 1.2 fold

Q: And the “Nrf1 mRNA fold change” value [1, 8]?
A: 2.2 fold

Q: What about the “Nrf2 mRNA fold change” value [1, 8] of the same compound?
A: 1.6 fold

Q: What about the “OPA1 mRNA fold change” value [1, 8] of the same compound?
A: 1.2 fold

Q: And the “PGC1α mRNA fold change” value [1, 8]?
A: 2.2 fold

Q: What about the “PSD95 mRNA fold change” value [1, 8] of the same compound?
A: 5.1 fold

Q: And the “Synaptophysin mRNA fold change” value [1, 8]?
A: 1.3 fold

Q: And the “TFAM mRNA fold change” value [1, 8]?
A: 1.5 fold

Q: What about the “Drp1 mRNA expression level, lower by fold” value [1, 9] of the same compound?
A: 1.5 fold

Q: What about the “Drp1 mRNA fold change” value [1, 9] of the same compound?
A: −1.5* fold

Q: What about the “Fis1 mRNA expression level, lower by fold” value [1, 9] of the same compound?
A: 1.6 fold

Q: And the “Fis1 mRNA fold change” value [1, 9]?
A: −1.6* fold

Q: What about the “Mfn2 mRNA fold change” value [1, 9] of the same compound?
A: 2.2 fold

Q: And the “Nrf1 mRNA fold change” value [1, 9]?
A: 2.7 fold

Q: And the “Nrf2 mRNA fold change” value [1, 9]?
A: 2.7 fold

Q: And the “OPA1 mRNA fold change” value [1, 9]?
A: 2.3 fold

Q: And the “PGC1α mRNA fold change” value [1, 9]?
A: 6.5 fold

Q: What about the “PSD95 mRNA fold change” value [1, 9] of the same compound?
A: 3.8 fold

Q: What about the “Synaptophysin mRNA fold change” value [1, 9] of the same compound?
A: 2.2 fold

Q: What about the “TFAM mRNA fold change” value [1, 9] of the same compound?
A: 3.2 fold

Q: And the “Drp1 mRNA fold change” value [1, 10]?
A: −1.1 fold

Q: And the “Fis1 mRNA fold change” value [1, 10]?
A: −1.2 fold

Q: And the “Mfn1 mRNA fold change” value [1, 10]?
A: 2.1 fold

Q: And the “Mfn2 mRNA fold change” value [1, 10]?
A: 1.7 fold

Q: What about the “Nrf1 mRNA fold change” value [1, 10] of the same compound?
A: 1.3 fold

Q: And the “Nrf2 mRNA fold change” value [1, 10]?
A: 1.3 fold

Q: And the “OPA1 mRNA fold change” value [1, 10]?
A: 1.9 fold

Q: What about the “PGC1α mRNA fold change” value [1, 10] of the same compound?
A: 1.1 fold

Q: What about the “PSD95 mRNA fold change” value [1, 10] of the same compound?
A: 1.5 fold

Q: What about the “Synaptophysin mRNA fold change” value [1, 10] of the same compound?
A: 1.7 fold

Q: What about the “TFAM mRNA fold change” value [1, 10] of the same compound?
A: 1.3 fold

Q: And the “Lipid peroxidation levels (4-hydroxy-2-nonenol)” value (“Lipid peroxidation levels” below) ([2]; Aβ42 6 hrs then Mdivi1 24 hrs (Aβ42+Mdivi1), vs N2a cells treated only with Aβ42)?
A: Significantly lower

Q: What about the “Lipid peroxidation levels” value [2, 8] of the same compound?
A: significantly lower

Q: And the “Lipid peroxidation levels” value ([2]; Mdivi1 24 hrs then Aβ42 6 hrs (Mdivi1+Aβ42), vs N2a cells treated only with Aβ42)?
A: Significantly lower

Q: What about the Cell viability ([3]; Aβ42 6 hrs then Mdivi1 24 hrs (Aβ42+Mdivi1), vs N2a+Aβ42) of the same compound?
A: higher

Q: What about the Cell viability [3, 8] of the same compound?
A: significantly higher

Q: And the Cell viability ([3]; Mdivi1 24 hrs then Aβ42 6 hrs (Mdivi1+Aβ42), vs N2a+Aβ42)?
A: higher

Q: What about the H2O2 levels ([4]; Aβ42 6 hrs then Mdivi1 24 hrs (Aβ42+Mdivi1), vs N2a+Aβ42 cells) of the same compound?
A: significantly lower

Q: What about the H2O2 levels [4, 7] of the same compound?
A: unchanged

Q: And the H2O2 levels ([4]; Mdivi1 24 hrs then Aβ42 6 hrs (Mdivi1+Aβ42), vs N2a+Aβ42 cells)?
A: significantly lower

Q: And the H2O2 levels [4, 10]?
A: unchanged

Q: What about the “Nrf2 mRNA fold change” value [5, 11] of the same compound?
A: 2.0 fold

Q: What about the “PSD95 mRNA fold change” value [5, 11] of the same compound?
A: 8.6 fold

Q: What about the “TFAM mRNA fold change” value [5, 11] of the same compound?
A: 2.9 fold

Q: And the “Mfn1 mRNA fold change” value ([5]; Mdivi1 24 hrs then Aβ42 6 hrs (Mdivi1+Aβ42))?
A: 2.6 fold
